The assay concerns the target T1, Tyrosine-protein phosphatase non-receptor type 22 (Homo sapiens, UniProt Q9Y2R2).
T1 sequence (Q9Y2R2 whole entry): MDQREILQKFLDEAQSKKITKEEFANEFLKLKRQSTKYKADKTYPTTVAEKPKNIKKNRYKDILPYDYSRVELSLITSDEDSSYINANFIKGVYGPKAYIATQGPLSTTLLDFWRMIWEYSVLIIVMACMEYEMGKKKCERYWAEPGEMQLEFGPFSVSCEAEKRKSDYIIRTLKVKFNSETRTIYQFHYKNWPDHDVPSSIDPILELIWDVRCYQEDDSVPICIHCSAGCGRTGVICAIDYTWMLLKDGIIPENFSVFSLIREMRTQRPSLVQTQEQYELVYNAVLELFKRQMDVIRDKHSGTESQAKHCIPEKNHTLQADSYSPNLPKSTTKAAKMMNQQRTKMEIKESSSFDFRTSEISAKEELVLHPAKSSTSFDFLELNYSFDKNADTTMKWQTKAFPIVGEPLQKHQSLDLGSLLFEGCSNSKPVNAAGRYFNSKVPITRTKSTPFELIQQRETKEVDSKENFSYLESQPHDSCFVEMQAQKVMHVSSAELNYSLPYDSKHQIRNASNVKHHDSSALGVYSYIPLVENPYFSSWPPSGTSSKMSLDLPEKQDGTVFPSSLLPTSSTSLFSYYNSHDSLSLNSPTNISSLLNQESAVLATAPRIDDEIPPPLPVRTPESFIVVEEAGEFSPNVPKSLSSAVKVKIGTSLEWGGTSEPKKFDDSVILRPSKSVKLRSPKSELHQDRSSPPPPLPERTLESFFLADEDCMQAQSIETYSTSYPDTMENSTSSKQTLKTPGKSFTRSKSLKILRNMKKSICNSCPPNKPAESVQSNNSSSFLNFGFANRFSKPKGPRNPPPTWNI
Nature of the assay: Inhibition of N-terminal His-tagged LYP catalytic domain (1 to 294 residues) (unknown origin) expressed in Escherichia coli BL21 (DE3) cells using pNPP as substrate by absorbance based plate reader analysis.
For orientation: IC50 means the concentration that gives 50% inhibition. Low readings indicate greater potency in that assay, high ones weaker potency in that assay. Take `O=C(O)c1cc2cc(N(Cc3ccc(-c4ccc(Cl)cc4)cc3)S(=O)(=O)c3ccc(Cl)c([N+](=O)[O-])c3)ccc2o1`: the IC50 worked out at 6.78 µM. To `O=C(O)c1cc2cc(N(Cc3ccccc3)S(=O)(=O)c3ccc(Cl)c([N+](=O)[O-])c3)ccc2o1` belongs more than 20 µM.

With `O=C(O)c1cc2cc(N(Cc3ccc(-c4ccccc4)cc3)S(=O)(=O)c3ccc(O)c([N+](=O)[O-])c3)ccc2o1`, the IC50 was determined as 18.7 µM.

`O=C(O)c1cc2cc(N(Cc3ccc(Oc4ccccc4)cc3)S(=O)(=O)c3ccc(-c4ccccc4)cc3)ccc2o1` had an IC50 of 10.7 µM.

`CCCCCCNc1ccc(S(=O)(=O)N(Cc2ccccc2)c2ccc3oc(C(=O)O)cc3c2)cc1[N+](=O)[O-]` yielded an IC50 of 5.03 µM.

For the compound `CN(c1ccc2oc(C(=O)O)cc2c1)S(=O)(=O)c1ccc(NCCN2CCOCC2)c([N+](=O)[O-])c1`, the IC50 was more than 20 µM. To `CN(c1ccc2oc(C(=O)O)cc2c1)S(=O)(=O)c1ccc(Cl)c([N+](=O)[O-])c1` belongs more than 20 µM; to `O=C(O)c1cc2cc(N(Cc3ccc(-c4ccccc4)cc3)S(=O)(=O)c3ccc(Cl)c([N+](=O)[O-])c3)ccc2o1`, 9.34 µM; to `O=C(O)c1cc2cc(N(Cc3ccccc3)S(=O)(=O)c3ccc(-c4ccccc4)cc3)ccc2o1`, more than 20 µM.

In the case of `O=C(O)c1cc2cc(N(Cc3ccc(-c4ccccc4)cc3)S(=O)(=O)c3ccc(Cl)cc3)ccc2o1`, the IC50 worked out at 9.04 µM.

For the compound `O=C(O)c1cc2cc(N(Cc3ccc(-c4ccccc4)cc3)S(=O)(=O)c3cccc(Cl)c3)ccc2o1`, the IC50 was more than 20 µM.

`CC(C)CN(c1ccc2oc(C(=O)O)cc2c1)S(=O)(=O)c1ccc(-c2ccccc2)cc1` had a half-maximal inhibitory concentration (IC50) of more than 20 µM.

`O=C(O)c1cc2cc(N(Cc3ccc(-c4ccccc4)cc3)S(=O)(=O)c3ccc(-c4ccccc4)cc3)ccc2o1` yielded an IC50 of 5.07 µM. To `O=C(O)c1cc2cc(N(Cc3ccc(-c4ccccc4)cc3)S(=O)(=O)c3ccc(Cl)nc3)ccc2o1` belongs 7.74 µM; to `O=C(O)c1cc2cc(NS(=O)(=O)c3ccc(-c4ccccc4)cc3)ccc2o1`, more than 20 µM; to `CCCCCCNc1ccc(S(=O)(=O)N(Cc2ccc(-c3ccccc3)cc2)c2ccc3oc(C(=O)O)cc3c2)cc1[N+](=O)[O-]`, 5.56 µM. Under `O=C(O)c1cc2cc(N(Cc3ccc(-c4ccco4)cc3)S(=O)(=O)c3ccc(-c4ccccc4)cc3)ccc2o1` stands 7.25 µM; under `CN(c1ccc2oc(C(=O)O)cc2c1)S(=O)(=O)c1ccc(Cl)cc1`, more than 20 µM; under `CN(c1ccc2oc(C(=O)O)cc2c1)S(=O)(=O)c1ccc(-c2ccccc2)cc1`, more than 20 µM. The compound `O=C(O)c1cc2cc(N(Cc3ccccc3)S(=O)(=O)c3ccc(NCCOc4ccccc4)c([N+](=O)[O-])c3)ccc2o1` had an IC50 of 10.3 µM. To `CC(C)CN(c1ccc2oc(C(=O)O)cc2c1)S(=O)(=O)c1ccc(Cl)cc1` belongs more than 20 µM. With `O=C(O)c1cc2cc(N(Cc3ccc(-c4ccccc4)cc3)S(=O)(=O)c3ccc(-c4cccs4)cc3)ccc2o1`, it took 8.87 µM to reach half-maximal inhibition (IC50). To `O=C(O)c1cc2cc(N(Cc3ccc(Oc4ccccc4)cc3)S(=O)(=O)c3ccc(Cl)c([N+](=O)[O-])c3)ccc2o1` belongs 5.67 µM; to `O=C(O)c1cc2cc(NS(=O)(=O)c3ccc(Cl)c([N+](=O)[O-])c3)ccc2o1`, more than 20 µM; to `O=C(O)c1cc2cc(N(Cc3ccccc3)S(=O)(=O)c3ccc(Cl)cc3)ccc2o1`, more than 20 µM. Regarding `O=C(O)c1cc2cc(NS(=O)(=O)c3ccc(Cl)cc3)ccc2o1`, the half-maximal inhibitory concentration (IC50) is more than 20 µM.

Turning to `O=C(O)c1cc2cc(N(Cc3ccc(-c4ccccc4)cc3)S(=O)(=O)c3ccc(Br)cc3)ccc2o1`, the IC50 is 7.87 µM. To `CC(C)CN(c1ccc2oc(C(=O)O)cc2c1)S(=O)(=O)c1ccc(Cl)c([N+](=O)[O-])c1` belongs more than 20 µM; to `O=C(O)c1cc2cc(N(Cc3ccc(-c4ccccc4)cc3)S(=O)(=O)c3cc(Cl)c(F)cc3F)ccc2o1`, 18.7 µM; to `O=C(O)c1cc2cc(N(Cc3cccc(Br)c3)S(=O)(=O)c3ccc(NCCOc4ccccc4)c([N+](=O)[O-])c3)ccc2o1`, 6.7 µM.

In turn, `O=C(O)c1cc2cc(N(Cc3ccc(-c4cccc(Cl)c4Cl)cc3)S(=O)(=O)c3ccc(Cl)c([N+](=O)[O-])c3)ccc2o1` came in with an IC50 of 5.91 µM.

With `O=C(O)c1cc2cc(N(Cc3ccc(-c4ccccc4)cc3)S(=O)(=O)c3ccccc3Cl)ccc2o1`, the half-inhibitory concentration (IC50) stood at 15.1 µM. Under `COc1ccc(-c2ccc(CN(c3ccc4oc(C(=O)O)cc4c3)S(=O)(=O)c3ccc(-c4ccccc4)cc3)cc2)cc1` stands 5.47 µM; under `O=C(O)c1cc2cc(N(Cc3ccc(-c4ccc(Cl)cc4)cc3)S(=O)(=O)c3ccc(-c4ccccc4)cc3)ccc2o1`, 4.36 µM.

Values taken from ChEMBL document CHEMBL5620412, “Discovery of benzofuran-2-carboxylic acid derivatives as lymphoid tyrosine phosphatase (LYP) inhibitors for cancer immunotherapy” (Eur J Med Chem, 2023).
